Active and inactive are the calls of the source. The rule behind the calls is not given here.
Assays:
[1] = target: T1, Disintegrin and metalloproteinase domain-containing protein 8 (Homo sapiens) (UniProt P78325); test: Inhibition of ADAM8 in human MDA-MB-231 cells assessed as inhibition of ERK1/2 phosphorylation at Thr202/Tyr204 residues at 10 uM incubated for 48 hrs by western blot analysis; format: cell-based
T1 sequence (whole entry): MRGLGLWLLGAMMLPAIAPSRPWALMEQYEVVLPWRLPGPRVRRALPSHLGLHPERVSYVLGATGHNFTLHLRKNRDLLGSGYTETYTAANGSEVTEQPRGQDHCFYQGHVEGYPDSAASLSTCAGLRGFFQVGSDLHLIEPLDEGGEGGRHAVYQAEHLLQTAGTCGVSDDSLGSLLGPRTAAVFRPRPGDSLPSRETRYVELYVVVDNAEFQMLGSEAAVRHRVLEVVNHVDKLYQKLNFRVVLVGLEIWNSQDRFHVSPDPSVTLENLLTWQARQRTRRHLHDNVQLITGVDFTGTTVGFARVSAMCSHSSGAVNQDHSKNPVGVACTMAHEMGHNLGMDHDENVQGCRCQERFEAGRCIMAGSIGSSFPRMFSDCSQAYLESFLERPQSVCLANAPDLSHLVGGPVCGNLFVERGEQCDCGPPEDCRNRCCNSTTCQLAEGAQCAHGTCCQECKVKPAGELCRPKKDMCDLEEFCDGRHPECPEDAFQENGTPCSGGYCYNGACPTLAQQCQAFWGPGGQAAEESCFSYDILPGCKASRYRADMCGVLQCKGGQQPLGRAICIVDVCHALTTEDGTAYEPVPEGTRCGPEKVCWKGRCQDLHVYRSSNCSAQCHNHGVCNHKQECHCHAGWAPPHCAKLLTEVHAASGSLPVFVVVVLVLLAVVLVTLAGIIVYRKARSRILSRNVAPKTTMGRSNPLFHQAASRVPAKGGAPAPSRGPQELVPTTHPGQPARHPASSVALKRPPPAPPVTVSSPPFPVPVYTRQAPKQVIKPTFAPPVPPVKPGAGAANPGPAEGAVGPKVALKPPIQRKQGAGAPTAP

[2] = target: T1, Disintegrin and metalloproteinase domain-containing protein 8 (Homo sapiens); test: Inhibition of ADAM8 in human MDA-MB-231 cells assessed as inhibition of Akt phosphorylation at Ser473 residue at 10 uM incubated for 48 hrs by western blot analysis; format: cell-based

inhibition [1]	inhibition [2]	Structure (SMILES)
inactive	inactive	O=C(CCCNC(=O)c1cccc(C(=O)NCCCC(=O)NCCC[C@@H](NS(=O)(=O)c2ccc(OCc3cc(Br)cc(Br)c3)cc2)C(=O)NO)c1)NCCC[C@@H](NS(=O)(=O)c1ccc(OCc2cc(Br)cc(Br)c2)cc1)C(=O)NO
inactive	inactive	O=C(NCCC[C@@H](NS(=O)(=O)c1ccc(OCc2cc(Br)cc(Br)c2)cc1)C(=O)NO)c1cccc(C(=O)NCCC[C@@H](NS(=O)(=O)c2ccc(OCc3cc(Br)cc(Br)c3)cc2)C(=O)NO)c1
inactive	inactive	O=C(NCCC[C@@H](NS(=O)(=O)c1ccc(OCc2cc(Br)cc(Br)c2)cc1)C(=O)NO)NCCC[C@@H](NS(=O)(=O)c1ccc(OCc2cc(Br)cc(Br)c2)cc1)C(=O)NO

Source: ChEMBL document CHEMBL5226358, “Discovery of Dimeric Arylsulfonamides as Potent ADAM8 Inhibitors” (ACS Med Chem Lett, 2021)
